The results in this text go back to patent publication US20050170391A1, “TAUT1 transporters expressed in blood brain barrier cells” (Xenoport, Inc., priority 2004, published 2005).

The target in this assay is T1, TAUT1 (Homo sapiens, UniProt P31641).
T1 sequence (P31641 1-620): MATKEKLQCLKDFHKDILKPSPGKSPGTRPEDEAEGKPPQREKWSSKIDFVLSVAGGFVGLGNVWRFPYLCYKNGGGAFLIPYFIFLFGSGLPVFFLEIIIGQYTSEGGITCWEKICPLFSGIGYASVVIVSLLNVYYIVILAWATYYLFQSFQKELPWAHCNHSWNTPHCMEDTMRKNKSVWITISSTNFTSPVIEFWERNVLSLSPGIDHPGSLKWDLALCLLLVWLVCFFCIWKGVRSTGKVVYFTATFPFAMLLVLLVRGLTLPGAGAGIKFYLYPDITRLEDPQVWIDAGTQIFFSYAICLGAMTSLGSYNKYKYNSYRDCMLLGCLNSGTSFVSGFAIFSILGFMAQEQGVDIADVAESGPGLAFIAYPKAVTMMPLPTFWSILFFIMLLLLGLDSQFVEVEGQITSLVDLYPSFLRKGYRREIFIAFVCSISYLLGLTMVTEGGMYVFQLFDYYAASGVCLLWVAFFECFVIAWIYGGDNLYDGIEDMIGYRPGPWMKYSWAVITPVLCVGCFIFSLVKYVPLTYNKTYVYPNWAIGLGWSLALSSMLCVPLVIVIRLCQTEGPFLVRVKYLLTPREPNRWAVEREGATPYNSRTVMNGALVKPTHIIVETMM
As to the kind of experiment: hTAUT1 competition uptake assay in HEK-TREx-TAUT1 cells. Particulars: HEK-TREx-TAUT1 cells induced with tetracycline; ^3H-GABA radiolabel (taurine: ^3H-taurine per Example 9); 15 min, room temperature. The arrangement: expressed in transfected cells; host or cells: HEK-TREx cells (HEK-TREx-TAUT1 inducible line). The assay is classed as cell-based. Here is the method:
A modified competition uptake assay was developed to determine the ability of a test compound(s) to inhibit the uptake of radiolabeled substrates into HEK-TREx-TAUT1 cells induced to over-express hTAUT. The results are stated as affinities (IC50).
The competition uptake assay were prepared as follows: Compounds were prepared for assay by diluting a 100 mM stock concentration (in DMSO) to the appropriate working concentration. Typically, seven-point dose response curves were prepared starting at a final assay concentration of 1 mM and carrying out three-fold dilutions. These dilutions were prepared by making a working “compound” plate that contained a 2× solution of the desired starting concentration of each test compound in duplicate in row A of a v-bottom microtiter plate. Six 3-fold serial dilutions (from row B to G) were made into the HBSS assay buffer (9.8 g/L Hank's Balance Salts (Sigma; H-1387), 2.6 g/L HEPES (10 mM) (Sigma; H-3375), 0.35 g/L NaHCO3 (4.2 mM) (Sigma; S-6297), pH to 7.4 with 5N NaOH) (with the appropriate amount of DMSO so that the DMSO concentration remains constant at all dilutions). The resulting “compound” plate contained serial dilutions of six compounds in duplicate.
^3H-GABA was diluted into HBSS buffer to a final concentration of 4,000 cpm/μl. Enough solution was prepared to allow addition of 25 μl/well (the final concentration was 100,000 cpm/well).
HEK-TREx-hTAUT cells, plated in 96-well plates and treated with tetracycline (or tet analog (e.g., doxycycline), were removed from the incubator. Growth media was removed from the cells, and the cells were washed twice in room temperature HBSS (100 μl/well/wash) using a 96-well plate washer (Bio Tek ELX405). Alternatively, cells were washed manually with equivalent volumes using a multichannel pipettor. Immediately before beginning the assay, the final 100 μl wash solution was removed from the cells by aspiration.
Using a 96-well pipettor, 25 μl from the “compound” plate was added to each well of the cell plate. The assay was started by adding 25 μl of the ^3H-GABA working solution. The plate was incubated at room temperature for 15 minutes. The assay was stopped by washing the cells four times with ice-cold HBSS buffer using a ELX 405 plate washer (100 μl buffer/well/wash) having an angled buffer dispenser.
Scintillation fluid (200 μl) (Optiphase Supermix (Perkin Elmer) was added to each well, and the plate was covered with a 96-well adhesive plate cover and placed on a shaker for 10 minutes. The plates were counted on a 96-well plate scintillation counter for 60 sec/well. The data were analyzed using a sigmoidal dose response curve-fitting program ((Prism, GraphPad, Inc, San Diego, Calif.; equation: one-site competition).
FIG. 7 depicts the results of a competition experiment using HEK-TREx-TAUT1 cells. ^3H-taurine was used as the substrate and unlabeled taurine was used as the competitor. The competition experiment was performed as described in Example 7. Non-specific uptake was determined by measuring the uptake into cells not induced to express the transporter (“no tet”). […] In control cells, uptake of labeled taurine remained at background levels and was largely unaffected by an excess of unlabeled taurine.
These four compounds, IAA, R,S-Baclofen, GPA, and GABA, were tested in both competition and direct uptake assays. One notable difference in the competition assay format compared to the literature is that ^3H-GABA was used, rather than ^3H-taurine, as the radiolabel. […] Therefore, to develop a competition assay that is as sensitive as possible, ^3H-GABA, a substrate with a much […] affinity, was used.
`NCC(CC(=O)O)c1ccc(Cl)cc1` (stereo not drawn) [R,S-Baclofen] yielded an IC50 of 1100 µM and a pIC50 of 3.0.

Compound `NCCCC(=O)O` [GABA, γ-aminobutyric acid] showed a concentration for half-maximal inhibition (IC50) of 54 µM.

For the compound `N=C(N)NCCC(=O)O` [GPA], the IC50 stood at 24 µM and the pIC50 is 4.7.

`O=C(O)Cc1c[nH]cn1` [IAA, 4-imidazole acetic acid] came in with an IC50 of 56 µM. This counts as double-digit micromolar.
